Data from ChEMBL document CHEMBL5724914, “Linking interpersonal differences in gut microbiota composition and drug biotransformation activity” (2024).

conditions: human gut metagenome, 24 h, 2 µM
Note: call rule not given here.

Structure (SMILES) | Bacterial Biotransformation
CCC(COC(=O)c1cc(OC)c(OC)c(OC)c1)(c1ccccc1)N(C)C.O=C(O)/C=C\C(=O)O (stereo not given) | Compound metabolized
CCCc1nc(C(C)(C)O)c(C(=O)OCc2oc(=O)oc2C)n1Cc1ccc(-c2ccccc2-c2nnn[nH]2)cc1 [OLMESARTAN MEDOXOMIL] | Compound metabolized

assay: (§1) The drug is tested on Z-003 corresponding to pig gut metagenome with ENA study accession number: PRJEB37062 and ENA sample accession number: ERS12561803 for biotransformation under anaerobic condition. The drug concentrations were measured over 9 timepoints collected between 0 and 24 hours of incubation by liquid-chromatography-coupled mass spectrometry (LC–MS); conditions: 2 µM

Structure (SMILES) | Bacterial Biotransformation
CCC(COC(=O)c1cc(OC)c(OC)c(OC)c1)(c1ccccc1)N(C)C.O=C(O)/C=C\C(=O)O (stereo not given) | Compound NOT metabolized
CCCc1nc(C(C)(C)O)c(C(=O)OCc2oc(=O)oc2C)n1Cc1ccc(-c2ccccc2-c2nnn[nH]2)cc1 [OLMESARTAN MEDOXOMIL] | Compound metabolized

assay: as §1, with “Z-012” for “Z-003”, “to” for “to pig gut”, “ERS12561812” for “ERS12561803”; conditions: 2 µM

Structure (SMILES) | Bacterial Biotransformation
CCC(COC(=O)c1cc(OC)c(OC)c(OC)c1)(c1ccccc1)N(C)C.O=C(O)/C=C\C(=O)O (stereo not given) | Compound NOT metabolized
CCCc1nc(C(C)(C)O)c(C(=O)OCc2oc(=O)oc2C)n1Cc1ccc(-c2ccccc2-c2nnn[nH]2)cc1 [OLMESARTAN MEDOXOMIL] | Compound metabolized

assay: as §1, with “Z-007” for “Z-003”, “rat” for “pig”, “ERS12561807” for “ERS12561803”; conditions: 2 µM

Structure (SMILES) | Bacterial Biotransformation
CCC(COC(=O)c1cc(OC)c(OC)c(OC)c1)(c1ccccc1)N(C)C.O=C(O)/C=C\C(=O)O (stereo not given) | Compound NOT metabolized
CCCc1nc(C(C)(C)O)c(C(=O)OCc2oc(=O)oc2C)n1Cc1ccc(-c2ccccc2-c2nnn[nH]2)cc1 [OLMESARTAN MEDOXOMIL] | Compound metabolized

assay: as §1, with “WLS-350” for “Z-003”, “human” for “pig”, “ERS12561789” for “ERS12561803”; conditions: 2 µM

Structure (SMILES) | Bacterial Biotransformation
CCC(COC(=O)c1cc(OC)c(OC)c(OC)c1)(c1ccccc1)N(C)C.O=C(O)/C=C\C(=O)O (stereo not given) | Compound NOT metabolized
CCCc1nc(C(C)(C)O)c(C(=O)OCc2oc(=O)oc2C)n1Cc1ccc(-c2ccccc2-c2nnn[nH]2)cc1 [OLMESARTAN MEDOXOMIL] | Compound NOT metabolized

conditions: human gut metagenome, 24 h, 2 µM; remark: another data set of the same source

Structure (SMILES) | Bacterial Biotransformation
CCC(COC(=O)c1cc(OC)c(OC)c(OC)c1)(c1ccccc1)N(C)C.O=C(O)/C=C\C(=O)O (stereo not given) | Compound metabolized
CCCc1nc(C(C)(C)O)c(C(=O)OCc2oc(=O)oc2C)n1Cc1ccc(-c2ccccc2-c2nnn[nH]2)cc1 [OLMESARTAN MEDOXOMIL] | Compound metabolized

assay: as §1, with “Z-029” for “Z-003”, “rat” for “pig”, “ERS12561828” for “ERS12561803”; conditions: 2 µM

Structure (SMILES) | Bacterial Biotransformation
CCC(COC(=O)c1cc(OC)c(OC)c(OC)c1)(c1ccccc1)N(C)C.O=C(O)/C=C\C(=O)O (stereo not given) | Compound NOT metabolized
CCCc1nc(C(C)(C)O)c(C(=O)OCc2oc(=O)oc2C)n1Cc1ccc(-c2ccccc2-c2nnn[nH]2)cc1 [OLMESARTAN MEDOXOMIL] | Compound NOT metabolized

conditions: human gut metagenome, 24 h, 2 µM; remark: another data set of the same source

Structure (SMILES) | Bacterial Biotransformation
CCC(COC(=O)c1cc(OC)c(OC)c(OC)c1)(c1ccccc1)N(C)C.O=C(O)/C=C\C(=O)O (stereo not given) | Compound metabolized
CCCc1nc(C(C)(C)O)c(C(=O)OCc2oc(=O)oc2C)n1Cc1ccc(-c2ccccc2-c2nnn[nH]2)cc1 [OLMESARTAN MEDOXOMIL] | Compound NOT metabolized

assay: as §1, with “Z-005” for “Z-003”, “to” for “to pig gut”, “ERS12561805” for “ERS12561803”; conditions: 2 µM

Structure (SMILES) | Bacterial Biotransformation
CCC(COC(=O)c1cc(OC)c(OC)c(OC)c1)(c1ccccc1)N(C)C.O=C(O)/C=C\C(=O)O (stereo not given) | Compound NOT metabolized
CCCc1nc(C(C)(C)O)c(C(=O)OCc2oc(=O)oc2C)n1Cc1ccc(-c2ccccc2-c2nnn[nH]2)cc1 [OLMESARTAN MEDOXOMIL] | Compound metabolized

assay: as §1, with “WLS-240” for “Z-003”, “human” for “pig”, “ERS12561773” for “ERS12561803”; conditions: 2 µM

Structure (SMILES) | Bacterial Biotransformation
CCC(COC(=O)c1cc(OC)c(OC)c(OC)c1)(c1ccccc1)N(C)C.O=C(O)/C=C\C(=O)O (stereo not given) | Compound metabolized
CCCc1nc(C(C)(C)O)c(C(=O)OCc2oc(=O)oc2C)n1Cc1ccc(-c2ccccc2-c2nnn[nH]2)cc1 [OLMESARTAN MEDOXOMIL] | Compound NOT metabolized

conditions: human gut metagenome, 24 h, 2 µM; remark: another data set of the same source

Structure (SMILES) | Bacterial Biotransformation
CCC(COC(=O)c1cc(OC)c(OC)c(OC)c1)(c1ccccc1)N(C)C.O=C(O)/C=C\C(=O)O (stereo not given) | Compound metabolized
CCCc1nc(C(C)(C)O)c(C(=O)OCc2oc(=O)oc2C)n1Cc1ccc(-c2ccccc2-c2nnn[nH]2)cc1 [OLMESARTAN MEDOXOMIL] | Compound metabolized

conditions: human gut metagenome, 24 h, 2 µM; remark: another data set of the same source

Structure (SMILES) | Bacterial Biotransformation
CCC(COC(=O)c1cc(OC)c(OC)c(OC)c1)(c1ccccc1)N(C)C.O=C(O)/C=C\C(=O)O (stereo not given) | Compound metabolized
CCCc1nc(C(C)(C)O)c(C(=O)OCc2oc(=O)oc2C)n1Cc1ccc(-c2ccccc2-c2nnn[nH]2)cc1 [OLMESARTAN MEDOXOMIL] | Compound metabolized

assay: as §1, with “Z-018” for “Z-003”, “ERS12561817” for “ERS12561803”; conditions: 2 µM

Structure (SMILES) | Bacterial Biotransformation
CCC(COC(=O)c1cc(OC)c(OC)c(OC)c1)(c1ccccc1)N(C)C.O=C(O)/C=C\C(=O)O (stereo not given) | Compound metabolized
CCCc1nc(C(C)(C)O)c(C(=O)OCc2oc(=O)oc2C)n1Cc1ccc(-c2ccccc2-c2nnn[nH]2)cc1 [OLMESARTAN MEDOXOMIL] | Compound metabolized

conditions: human gut metagenome, 24 h, 2 µM; remark: another data set of the same source

Structure (SMILES) | Bacterial Biotransformation
CCC(COC(=O)c1cc(OC)c(OC)c(OC)c1)(c1ccccc1)N(C)C.O=C(O)/C=C\C(=O)O (stereo not given) | Compound NOT metabolized
CCCc1nc(C(C)(C)O)c(C(=O)OCc2oc(=O)oc2C)n1Cc1ccc(-c2ccccc2-c2nnn[nH]2)cc1 [OLMESARTAN MEDOXOMIL] | Compound metabolized

conditions: human gut metagenome, 24 h, 2 µM; remark: another data set of the same source

Structure (SMILES) | Bacterial Biotransformation
CCC(COC(=O)c1cc(OC)c(OC)c(OC)c1)(c1ccccc1)N(C)C.O=C(O)/C=C\C(=O)O (stereo not given) | Compound metabolized
CCCc1nc(C(C)(C)O)c(C(=O)OCc2oc(=O)oc2C)n1Cc1ccc(-c2ccccc2-c2nnn[nH]2)cc1 [OLMESARTAN MEDOXOMIL] | Compound metabolized

conditions: human gut metagenome, 24 h, 2 µM; remark: another data set of the same source

Structure (SMILES) | Bacterial Biotransformation
CCC(COC(=O)c1cc(OC)c(OC)c(OC)c1)(c1ccccc1)N(C)C.O=C(O)/C=C\C(=O)O (stereo not given) | Compound NOT metabolized
CCCc1nc(C(C)(C)O)c(C(=O)OCc2oc(=O)oc2C)n1Cc1ccc(-c2ccccc2-c2nnn[nH]2)cc1 [OLMESARTAN MEDOXOMIL] | Compound metabolized

conditions: human gut metagenome, 24 h, 2 µM; remark: another data set of the same source

Structure (SMILES) | Bacterial Biotransformation
CCC(COC(=O)c1cc(OC)c(OC)c(OC)c1)(c1ccccc1)N(C)C.O=C(O)/C=C\C(=O)O (stereo not given) | Compound metabolized
CCCc1nc(C(C)(C)O)c(C(=O)OCc2oc(=O)oc2C)n1Cc1ccc(-c2ccccc2-c2nnn[nH]2)cc1 [OLMESARTAN MEDOXOMIL] | Compound metabolized

conditions: human gut metagenome, 24 h, 2 µM; remark: another data set of the same source

Structure (SMILES) | Bacterial Biotransformation
CCC(COC(=O)c1cc(OC)c(OC)c(OC)c1)(c1ccccc1)N(C)C.O=C(O)/C=C\C(=O)O (stereo not given) | Compound NOT metabolized
CCCc1nc(C(C)(C)O)c(C(=O)OCc2oc(=O)oc2C)n1Cc1ccc(-c2ccccc2-c2nnn[nH]2)cc1 [OLMESARTAN MEDOXOMIL] | Compound NOT metabolized

assay: as §1, with “WLS-082” for “Z-003”, “human” for “pig”, “ERS12561751” for “ERS12561803”; conditions: 2 µM

Structure (SMILES) | Bacterial Biotransformation
CCC(COC(=O)c1cc(OC)c(OC)c(OC)c1)(c1ccccc1)N(C)C.O=C(O)/C=C\C(=O)O (stereo not given) | Compound metabolized
CCCc1nc(C(C)(C)O)c(C(=O)OCc2oc(=O)oc2C)n1Cc1ccc(-c2ccccc2-c2nnn[nH]2)cc1 [OLMESARTAN MEDOXOMIL] | Compound metabolized

conditions: human gut metagenome, 24 h, 2 µM; remark: another data set of the same source

Structure (SMILES) | Bacterial Biotransformation
CCC(COC(=O)c1cc(OC)c(OC)c(OC)c1)(c1ccccc1)N(C)C.O=C(O)/C=C\C(=O)O (stereo not given) | Compound NOT metabolized
CCCc1nc(C(C)(C)O)c(C(=O)OCc2oc(=O)oc2C)n1Cc1ccc(-c2ccccc2-c2nnn[nH]2)cc1 [OLMESARTAN MEDOXOMIL] | Compound metabolized
